Test results published in US9156822B2, “Functionally selective ligands of dopamine D2 receptors” (The University of North Carolina at Chapel Hill, priority 2010, dated 2015).
Where two headings read alike, the source gives them in different places.

Experiments:
in vivo = conditions: mouse
D2 receptors [1] = target: T1, D2 receptors (Homo sapiens (Human), UniProt P14416); experiment: D2 β-arrestin recruitment (Tango) assay; type: cell-based; conditions: for Emax: normalized to quinpirole (100%)
Procedure: The next day, cells were plated in white, clear-bottom, 384-well plates (Greiner, 10,000 cells/well, 50 μl/well) in DMEM containing 1% dialyzed fetal bovine serum. […] Data were normalized to vehicle (0%) and quinpirole (100%) controls and regressed using the sigmoidal dose-response function built into GraphPad Prism 4.0.
Target sequence in this assay (P14416 whole entry, looked up): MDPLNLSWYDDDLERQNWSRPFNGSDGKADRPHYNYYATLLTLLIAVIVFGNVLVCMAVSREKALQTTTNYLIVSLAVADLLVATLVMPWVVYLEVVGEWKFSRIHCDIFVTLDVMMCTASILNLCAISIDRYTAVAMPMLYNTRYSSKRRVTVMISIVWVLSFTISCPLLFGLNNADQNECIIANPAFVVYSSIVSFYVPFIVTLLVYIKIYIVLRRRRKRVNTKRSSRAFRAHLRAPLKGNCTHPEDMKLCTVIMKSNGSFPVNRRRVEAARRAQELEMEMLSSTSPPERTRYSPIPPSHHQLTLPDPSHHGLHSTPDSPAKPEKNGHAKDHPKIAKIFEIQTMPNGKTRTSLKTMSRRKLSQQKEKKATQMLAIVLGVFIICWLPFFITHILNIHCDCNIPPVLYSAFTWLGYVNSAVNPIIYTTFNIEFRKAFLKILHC

D2 receptors [2] = target: T1, D2 receptors; experiment: CHO-D2 radioligand binding assay ([3H]N-methylspiperone competition); conditions: CHO-D2 membranes, [3H]N-methylspiperone; read-out: D2 Binding Ki ± SEM
Target sequence in this assay (P14416 whole entry): as the sequence (P14416 whole entry, looked up) above

hD2 receptors = hD2 receptors (Homo sapiens (Human), UniProt P14416); experiment: D2 mediated cAMP GloSensor assay; type: cell-based; conditions: for EC50: HEK293T, isoproterenol-stimulated cAMP; for Emax: normalized to quinpirole, negative = inverse agonist, read-out: cAMP (GloSensor) Emax; as to cAMP (GloSensor) activity in words (merged EC50/Emax cell): key: neutral: Neutral ligands are either antagonists or are inactive
[3] = HTLA cells, read-out: β-arrestin (Tango) EC50

hD2 receptors, sequence (P14416 whole entry): as the sequence (P14416 whole entry, looked up) above

| Compound | EC50 (D2 receptors [1]; [3]) | Emax (D2 receptors [1]) | Ki (D2 receptors [2]) | EC50 (hD2 receptors) | Emax (hD2 receptors) | other results |
| --- | --- | --- | --- | --- | --- | --- |
| O=C1CCc2ccc(OCCCCN3CCN(c4cccc(Cl)c4Cl)CC3)cc2N1 [Aripiprazole, aripiprazole, reference compound] | – | – | – | – | – | AUC(0-inf) (in vivo; brain): 1180 ng·h/mL; AUC(0-t) (in vivo; brain): 1100 ng·h/mL; Cmax (in vivo; brain): 166 ng/mL; Tmax (in vivo; brain): 30 min; AUC(0-inf) (in vivo; plasma): 445 ng·h/mL; AUC(0-t) (in vivo; plasma): 431 ng·h/mL; Cmax (in vivo; plasma): 75.6 ng/mL; Tmax (in vivo; plasma): 15 min |
| O=C1CCc2ccc(OCCCN3CCCN(c4cccc(Cl)c4Cl)CC3)cc2N1 [Compound 1, 7-(3-(4-(2,3-dichlorophenyl)-1,4-diazepan-1-yl)propoxy)-3,4-dihydroquinolin-2(1H)-one] | – | – | – | – | – | melting point: 130 to 131 °C |
| O=C1NCCc2ccc(OCCCN3CCCN(c4cccc(Cl)c4Cl)CC3)cc21 [Compound 5, 7-(3-(4-(2,3-dichlorophenyl)-1,4-diazepan-1-yl)propoxy)-3,4-dihydroisoquinolin-1(2H)-one] | 8 nM | 47% | 5.7 ± 0.8 nM | 5.6 nM | -16% | melting point: 116 to 117 °C; β-arrestin (Tango) % activ at 1 μM (D2 receptors [1]): 13% |
| O=C1NCCc2ccc(OCCCCN3CCCN(c4cccc(Cl)c4Cl)CC3)cc21 [Compound 6, 7-(4-(4-(2,3-dichlorophenyl)-1,4-diazepan-1-yl)butoxy)-3,4-dihydroisoquinolin-1(2H)-one] | – | – | – | – | – | melting point: 86 to 88 °C |
| Clc1cccc(N2CCCN(CCCCOc3ccc4scnc4c3)CC2)c1Cl [Compound 7, 5-(4-(4-(2,3-dichlorophenyl)-1,4-diazepan-1-yl)butoxy)benzo[d]thiazole] | – | – | – | – | – | melting point: 82 to 84 °C |
| Clc1cccc(N2CCCN(CCCOc3ccc4scnc4c3)CC2)c1Cl [Compound 8, 5-(3-(4-(2,3-dichlorophenyl)-1,4-diazepan-1-yl)propoxy)benzo[d]thiazole] | – | – | – | – | -26% | melting point: 93 to 94 °C |
| COc1ccccc1N1CCCN(CCCCOc2ccc3c(c2)NC(=O)CC3)CC1 [Compound 9, 7-(4-(4-(2-methoxyphenyl)-1,4-diazepan-1-yl)butoxy)-3,4-dihydroquinolin-2(1H)-one] | 4.6 nM | 26% | 4 nM | 163 nM | -63% | – |
| COc1ccccc1N1CCCN(CCCCOc2ccc3ccc(=O)[nH]c3c2)CC1 [Compound 10, 7-(4-(4-(2-methoxyphenyl)-1,4-diazepan-1-yl)butoxy)quinolin-2(1H)-one] | – | 16% | – | – | – | – |
| COc1ccccc1N1CCCN(CCCCOc2ccc3c(n2)NC(=O)CC3)CC1 [Compound 11, 7-(4-(4-(2-methoxyphenyl)-1,4-diazepan-1-yl)butoxy)-3,4-dihydro-1,8-naphthyridin-2(1H)-one] | – | 21% | – | – | -118% | – |
| CCOc1ccccc1N1CCCN(CCCCOc2ccc3c(c2)NC(=O)CC3)CC1 [Compound 12, 7-(4-(4-(2-ethoxyphenyl)-1,4-diazepan-1-yl)butoxy)-3,4-dihydroquinolin-2(1H)-one] | 4.3 nM | 41% | 4.1 ± 0.2 nM | – | – | cAMP (GloSensor) activity in words (merged EC50/Emax cell) (hD2 receptors): neutral |
| CCOc1ccccc1N1CCCN(CCCCOc2ccc3c(n2)NC(=O)CC3)CC1 [Compound 13, 7-(4-(4-(2-ethoxyphenyl)-1,4-diazepan-1-yl)butoxy)-3,4-dihydro-1,8-naphthyridin-2(1H)-one] | 4 nM | 43% | 4.4 ± 0.3 nM | – | – | cAMP (GloSensor) activity in words (merged EC50/Emax cell) (hD2 receptors): neutral |
| CCOc1ccccc1N1CCCN(CCCCOc2ccc3ccc(=O)[nH]c3c2)CC1 [Compound 14, 7-(4-(4-(2-ethoxyphenyl)-1,4-diazepan-1-yl)butoxy)quinolin-2(1H)-one] | – | 58% | – | – | – | – |
| O=c1ccc2ccc(OCCCN3CCCN(c4cccc(Cl)c4Cl)CC3)cc2[nH]1 [Compound 15, 7-(3-(4-(2,3-dichlorophenyl)-1,4-diazepan-1-yl)propoxy)quinolin-2(1H)-one] | 2.2 nM | 84% | 3.4 ± 0.2 nM | 13 nM | 64% | melting point: 117 to 118 °C |
| CC(C)Oc1ccccc1N1CCCN(CCCCOc2ccc3c(c2)NC(=O)CC3)CC1 [Compound 16, 7-(4-(4-(2-isopropoxyphenyl)-1,4-diazepan-1-yl)butoxy)-3,4-dihydroquinolin-2(1H)-one] | 4.2 nM | 53% | 0.87 ± 0.04 nM | – | – | cAMP (GloSensor) activity in words (merged EC50/Emax cell) (hD2 receptors): neutral |
| CC(C)Oc1ccccc1N1CCCN(CCCCOc2ccc3c(n2)NC(=O)CC3)CC1 [Compound 17, 7-(4-(4-(2-isopropoxyphenyl)-1,4-diazepan-1-yl)butoxy)-3,4-dihydro-1,8-naphthyridin-2(1H)-one] | 4.6 nM | 56% | 1.29 ± 0.03 nM | 0.2 nM | 18% | – |
| CC(C)Oc1ccccc1N1CCCN(CCCCOc2ccc3ccc(=O)[nH]c3c2)CC1 [Compound 18, 7-(4-(4-(2-isopropoxyphenyl)-1,4-diazepan-1-yl)butoxy)quinolin-2(1H)-one] | 4.2 nM | 58% | 0.93 ± 0.03 nM | 0.1 nM | 32% | – |
| O=c1[nH]c2ccc(OCCCN3CCCN(c4cccc(Cl)c4Cl)CC3)cc2[nH]1 [Compound 19, 5-(3-(4-(2,3-dichlorophenyl)-1,4-diazepan-1-yl)propoxy)-1H-benzo[c]imidazol-2(3H)-one] | 8.5 nM | 48% | 4.5 ± 0.2 nM | – | – | melting point: 148 to 150 °C; cAMP (GloSensor) activity in words (merged EC50/Emax cell) (hD2 receptors): neutral |
| O=c1[nH]c2ccc(OCCCCN3CCC(c4cccc(Cl)c4Cl)CC3)cc2[nH]1 [Compound 24, 5-(4-(4-(2,3-dichlorophenyl)piperidin-1-yl)butoxy)-1H-benzo[d]imidazol-2(3H)-one] | – | – | – | – | – | melting point: 180 to 182 °C |
| O=C1NCCc2ccc(OCCCCN3CCN(c4cccc(Cl)c4Cl)CC3)cc21 [Compound 25, 7-(4-(4-(2,3-dichlorophenyl)piperazin-1-yl)butoxy)-3,4-dihydroisoquinolin-1(2H)-one] | 18 nM | 55% | 18 ± 3 nM | 3700 nM | -74% | β-arrestin (Tango) % activ at 1 μM (D2 receptors [1]): 12% |
| O=C1CCc2ccc(OCC3CCC(CN4CCN(c5cccc(Cl)c5Cl)CC4)CC3)cc2N1 (stereo not drawn) [Compound 26, 7-((4-((4-(2,3-dichlorophenyl)piperazin-1-yl)methyl)cyclohexyl)methoxy)-3,4-dihydroquinolin-2(1H)-one] | 2100 nM | 51% | 145 ± 22 nM | 46000 nM | -25% | β-arrestin (Tango) % activ at 1 μM (D2 receptors [1]): 6% |
| Clc1cccc(N2CCN(CCCCOc3ccc4cn[nH]c4c3)CC2)c1Cl [Compound 28, 6-(4-(4-(2,3-dichlorophenyl)piperazin-1-yl)butoxy)-1H-indazole] | 92 nM | 65% | 66 ± 10 nM | 5.7 nM | -29% | β-arrestin (Tango) % activ at 1 μM (D2 receptors [1]): 18% |
| O=C1CCc2ccc(Oc3ccc(CN4CCN(c5cccc(Cl)c5Cl)CC4)cc3)cc2N1 [Compound 31, 7-(4-((4-(2,3-dichlorophenyl)piperazin-1-yl)methyl)phenoxy)-3,4-dihydro quinolin-2(1H)-one] | 399 nM | 49% | 108 ± 18 nM | 5.7 nM | -47% | β-arrestin (Tango) % activ at 1 μM (D2 receptors [1]): 16% |
| O=C1NCCc2ccc(OCCCN3CCN(c4cccc(Cl)c4Cl)CC3)cc21 [Compound 32, 7-(3-(4-(2,3-dichlorophenyl)piperazin-1-yl)propoxy)-3,4-dihydroisoquinolin-1(2H)-one] | 30 nM | 83% | 18 ± 2 nM | – | – | β-arrestin (Tango) % activ at 1 μM (D2 receptors [1]): 44%; cAMP (GloSensor) activity in words (merged EC50/Emax cell) (hD2 receptors): neutral |
| O=c1[nH]c2ccc(OCCCN3CCN(c4cccc(Cl)c4Cl)CC3)cc2[nH]1 [Compound 34, 5-(3-(4-(2,3-dichlorophenyl)piperazin-1-yl)propoxy)-1H-benzo[d]imidazol-2(3H)-one] | – | 78% | 25 ± 3 nM | 512 nM | 25% | EC50 (D2 receptors [1]): 52 nM; β-arrestin (Tango) % activ at 1 μM (D2 receptors [1]): 36% |
| O=c1[nH]c2ccc(OCCCCN3CCN(c4cccc(Cl)c4Cl)CC3)cc2[nH]1 [Compound 35] | 16 nM | – | 15 ± 3 nM | – | – | β-arrestin (Tango) % activ at 1 μM (D2 receptors [1]): 19%; cAMP (GloSensor) activity in words (merged EC50/Emax cell) (hD2 receptors): neutral |
| COc1ccccc1N1CCN(CCCCOc2ccc3c(n2)NC(=O)CC3)CC1 [Compound 37] | – | 67% | 1.7 ± 0.1 nM | 11 nM | 17% | EC50 (D2 receptors [1]): 1 nM |
| O=C1CCc2ccc(OCCCCN3CCN(c4cccc5c4OCCO5)CC3)cc2N1 [Compound 40, 7-(4-(4-(2,3-dihydrobenzo[b][1,4]dioxin-5-yl)piperazin-1-yl)butoxy)-3,4-dihydroquinolin-2(1H)-one] | 1.5 nM | 33% | 0.3 ± 0.02 nM | – | – | cAMP (GloSensor) activity in words (merged EC50/Emax cell) (hD2 receptors): neutral |
| O=C1CCc2ccc(OCCCCN3CCN(c4cccc5c4OCCO5)CC3)nc2N1 [Compound 41, 7-(4-(4-(2,3-dihydrobenzo[b][1,4]dioxin-5-yl)piperazin-1-yl)butoxy)-3,4-dihydro-1,8-naphthyridin-2(1H)-one] | 0.6 nM | 31% | 0.45 ± 0.02 nM | 0.4 nM | -19% | – |
| CC(=O)Nc1cc(OCCCCN2CCN(c3cccc(Cl)c3Cl)CC2)ccc1C [Compound 43, N-(5-(4-(4-(2,3-dichlorophenyl)piperazin-1-yl)butoxy)-2-methylphenyl)acetamide] | 9.2 nM | 59% | 72 ± 4 nM | – | – | cAMP (GloSensor) activity in words (merged EC50/Emax cell) (hD2 receptors): neutral |
